{
  "source": "ChEMBL document CHEMBL1123949",
  "about": "“Molecular structure of fluoxetine hydrochloride, a highly selective serotonin-uptake inhibitor” (J Med Chem, 1988)",
  "key": {"Rattus norvegicus [1]": {"species": "Rattus norvegicus", "assay": "In vitro inhibition of serotonin (5-HT) uptake in crude rat brain synaptosomes", "format": "functional, organism-based"}, "Rattus norvegicus [2]": {"species": "Rattus norvegicus", "assay": "In vitro inhibition of norepinephrine (NE) uptake in crude rat brain synaptosomes", "format": "functional, organism-based"}, "Rattus norvegicus [3]": {"species": "Rattus norvegicus", "assay": "In vitro inhibition of norepinephrine (NE) uptake in crude rat brain synaptosomes (% inhibition at maximum concentration)"}},
  "data": [
    {"smiles": "NC12CCC(c3ccccc3)(CC1)CC2", "values": [
      {"measurement": "IC50", "setting": "Rattus norvegicus [1]", "value": 95, "unit": "nM"},
      {"measurement": "IC50", "setting": "Rattus norvegicus [2]", "value": 80, "unit": "nM"}
    ]},
    {"smiles": "CN[C@@H]1CCC(c2ccccc2)c2ccccc21", "note": "(stereo partly drawn)", "values": [
      {"measurement": "IC50", "setting": "Rattus norvegicus [1]", "value": 840, "unit": "nM"},
      {"measurement": "IC50", "setting": "Rattus norvegicus [2]", "value": 18, "unit": "nM"}
    ]},
    {"smiles": "NC12CCC(c3ccc(Br)cc3)(CC1)CC2", "values": [
      {"measurement": "IC50", "setting": "Rattus norvegicus [1]", "value": 680, "unit": "nM"},
      {"measurement": "IC50", "setting": "Rattus norvegicus [2]", "value": 54000, "unit": "nM"}
    ]},
    {"smiles": "CNCCCOc1ccc(C(F)(F)F)cc1", "values": [
      {"measurement": "IC50", "setting": "Rattus norvegicus [1]", "value": 3000, "unit": "nM"},
      {"measurement": "IC50", "setting": "Rattus norvegicus [2]", "value": "> 10000", "unit": "nM"}
    ]},
    {"smiles": "CC(N)C(=O)OC(C)(C)Cc1ccc(Cl)cc1", "note": "(stereo not drawn) [ALAPROCLATE]", "values": [
      {"measurement": "IC50", "setting": "Rattus norvegicus [1]", "value": 700, "unit": "nM"},
      {"measurement": "IC50", "setting": "Rattus norvegicus [2]", "value": "> 34000", "unit": "nM"}
    ]},
    {"smiles": "CNCC[C@@H](Oc1ccccc1C)c1ccccc1", "note": "[ATOMOXETINE]", "values": [
      {"measurement": "IC50", "setting": "Rattus norvegicus [1]", "value": 1500, "unit": "nM"},
      {"measurement": "IC50", "setting": "Rattus norvegicus [2]", "value": 4, "unit": "nM"}
    ]},
    {"smiles": "COc1ccc(OC[C@H]2CN(C)CC[C@@H]2c2ccccc2)cc1", "note": "[FEMOXETINE]", "values": [
      {"measurement": "IC50", "setting": "Rattus norvegicus [1]", "value": 8.3, "unit": "nM"},
      {"measurement": "IC50", "setting": "Rattus norvegicus [2]", "value": 410, "unit": "nM"}
    ]},
    {"smiles": "CNCCC(Oc1ccc(C(F)(F)F)cc1)c1ccccc1", "note": "(stereo not drawn) [FLUOXETINE]", "values": [
      {"measurement": "IC50", "setting": "Rattus norvegicus [3]", "value": "> 10000", "unit": "nM"},
      {"measurement": "IC50", "setting": "Rattus norvegicus [1]", "value": 70, "unit": "nM"}
    ]},
    {"smiles": "CNCCC(Oc1ccccc1OC)c1ccccc1", "note": "(stereo not drawn) [NISOXETINE]", "values": [
      {"measurement": "IC50", "setting": "Rattus norvegicus [1]", "value": 2000, "unit": "nM"},
      {"measurement": "IC50", "setting": "Rattus norvegicus [2]", "value": 10, "unit": "nM"}
    ]}
  ]
}
